ChEMBL document CHEMBL1144434, “Structure-activity relationships within a series of caspase inhibitors. Part 2: Heterocyclic warheads” (Bioorg Med Chem Lett, 2005)

Legend:
Caspase-8 (Homo sapiens) = Caspase-8 (Homo sapiens) (UniProt Q14790); experiment: Binding affinity against Caspase-8
Caspase-3 (Homo sapiens) = molecular target: T1, Caspase-3 (Homo sapiens) (UniProt P42574); experiment: Binding affinity against Caspase-3
T1 sequence (whole entry): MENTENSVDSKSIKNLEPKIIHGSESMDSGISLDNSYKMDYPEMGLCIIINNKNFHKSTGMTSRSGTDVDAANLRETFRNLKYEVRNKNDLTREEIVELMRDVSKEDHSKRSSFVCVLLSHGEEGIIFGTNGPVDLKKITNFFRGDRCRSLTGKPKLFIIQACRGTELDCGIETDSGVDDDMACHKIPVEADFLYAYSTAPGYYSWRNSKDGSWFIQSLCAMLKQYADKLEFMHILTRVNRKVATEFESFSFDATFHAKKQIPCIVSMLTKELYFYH

Caspase-6 (Homo sapiens) = molecular target: T2, Caspase-6 (Homo sapiens) (UniProt P55212); experiment: Binding affinity against Caspase-6
T2 sequence (whole entry): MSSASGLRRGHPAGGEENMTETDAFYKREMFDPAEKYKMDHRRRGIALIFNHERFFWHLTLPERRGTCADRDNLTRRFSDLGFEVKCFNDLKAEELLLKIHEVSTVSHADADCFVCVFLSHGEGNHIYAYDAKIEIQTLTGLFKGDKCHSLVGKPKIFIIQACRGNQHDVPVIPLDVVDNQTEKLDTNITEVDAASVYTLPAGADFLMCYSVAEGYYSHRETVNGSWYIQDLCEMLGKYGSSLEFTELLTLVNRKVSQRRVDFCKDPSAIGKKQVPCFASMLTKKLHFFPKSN

Caspase-1 (Mus musculus) = molecular target: T3, Caspase-1 (Mus musculus) (UniProt P29452); experiment: Binding affinity against mouse Caspase-1
T3 sequence (whole entry): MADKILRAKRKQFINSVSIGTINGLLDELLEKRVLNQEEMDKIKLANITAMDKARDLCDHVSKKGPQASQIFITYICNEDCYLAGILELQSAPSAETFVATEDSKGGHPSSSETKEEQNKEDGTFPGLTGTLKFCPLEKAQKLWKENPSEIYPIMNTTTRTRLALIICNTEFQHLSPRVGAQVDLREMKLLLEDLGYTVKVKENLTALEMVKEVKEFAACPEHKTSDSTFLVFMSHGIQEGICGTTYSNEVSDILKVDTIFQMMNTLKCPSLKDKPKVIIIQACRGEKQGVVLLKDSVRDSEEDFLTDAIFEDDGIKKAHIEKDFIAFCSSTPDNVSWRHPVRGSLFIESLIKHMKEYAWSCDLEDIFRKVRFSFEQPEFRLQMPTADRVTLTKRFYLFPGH

Jurkat = experiment: Inhibitory concentration for cellular activity in jurkat assay; format: functional, cell-based; settings: Homo sapiens

Caspase-8 (Homo sapiens), sequence (Q14790 217-374 limits assumed): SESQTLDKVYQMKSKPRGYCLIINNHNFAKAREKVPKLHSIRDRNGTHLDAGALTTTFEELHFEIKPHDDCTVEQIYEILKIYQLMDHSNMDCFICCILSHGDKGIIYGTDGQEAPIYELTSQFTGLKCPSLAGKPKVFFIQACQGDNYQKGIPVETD
Caspase-8 (Homo sapiens), sequence (Q14790 385-479 limits assumed): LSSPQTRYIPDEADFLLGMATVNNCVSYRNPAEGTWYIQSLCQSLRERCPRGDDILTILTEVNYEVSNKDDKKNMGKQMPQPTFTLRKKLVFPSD

k3/ki (Caspase-8 (Homo sapiens))	k3/ki (Caspase-3 (Homo sapiens))	k3/ki (Caspase-6 (Homo sapiens))	k3/ki (Caspase-1 (Mus musculus))	IC50 (Jurkat) [µM]	Compound
0 1/m/s	0 1/m/s	0 1/m/s	0 1/m/s	166	CC(C)[C@H](NC(=O)COc1cccc2ccccc12)C(=O)N[C@@H](CC(=O)O)C(=O)COc1cncc2ccccc12
367 1/m/s	7480 1/m/s	903 1/m/s	1330 1/m/s	> 200	Cc1cc(OCC(=O)[C@H](CC(=O)O)NC(=O)[C@@H](NC(=O)COc2cccc3ccccc23)C(C)C)nc(C)n1
218 1/m/s	2010 1/m/s	0 1/m/s	200 1/m/s	> 200	CC(C)[C@H](NC(=O)COc1cccc2ccccc12)C(=O)N[C@@H](CC(=O)O)C(=O)CSc1nc(-c2ccccc2)c(-c2ccccc2)o1
0 1/m/s	1750 1/m/s	156 1/m/s	479 1/m/s	> 200	CC(C)[C@H](NC(=O)COc1cccc2ccccc12)C(=O)N[C@@H](CC(=O)O)C(=O)COc1cc(C(F)(F)F)ncn1
4 1/m/s	343 1/m/s	0 1/m/s	83 1/m/s	> 200	CC(C)[C@H](NC(=O)COc1cccc2ccccc12)C(=O)N[C@@H](CC(=O)O)C(=O)COc1ncnc2ccccc12
10 1/m/s	1770 1/m/s	25 1/m/s	168 1/m/s	> 200	CC(C)[C@H](NC(=O)COc1cccc2ccccc12)C(=O)N[C@@H](CC(=O)O)C(=O)CSc1nc2ccccc2[nH]1

Second part, the compound before the results:

Compound	k3/ki (Caspase-8 (Homo sapiens))	k3/ki (Caspase-3 (Homo sapiens))	k3/ki (Caspase-6 (Homo sapiens))	k3/ki (Caspase-1 (Mus musculus))	IC50 (Jurkat) [µM]
COC(=O)c1cc(OCC(=O)[C@H](CC(=O)O)NC(=O)[C@@H](NC(=O)COc2cccc3ccccc23)C(C)C)no1	6340 1/m/s	144000 1/m/s	5800 1/m/s	42500 1/m/s	71
CC(C)[C@H](NC(=O)COc1cccc2ccccc12)C(=O)N[C@@H](CC(=O)O)C(=O)COc1nccc2ccccc12	177 1/m/s	1310 1/m/s	462 1/m/s	360 1/m/s	106
CC(C)[C@H](NC(=O)COc1cccc2ccccc12)C(=O)N[C@@H](CC(=O)O)C(=O)CSc1nnnn1-c1ccccc1	0 1/m/s	19200 1/m/s	224 1/m/s	400 1/m/s	153
CC(C)[C@H](NC(=O)COc1cccc2ccccc12)C(=O)N[C@@H](CC(=O)O)C(=O)CSc1nnc(-c2ccccc2)o1	276 1/m/s	4800 1/m/s	110 1/m/s	280 1/m/s	150
CC(C)[C@H](NC(=O)COc1cccc2ccccc12)C(=O)N[C@@H](CC(=O)O)C(=O)CSc1nccn1C	212 1/m/s	11500 1/m/s	570 1/m/s	1200 1/m/s	> 200
CC(C)[C@H](NC(=O)COc1cccc2ccccc12)C(=O)N[C@@H](CC(=O)O)C(=O)COc1ccncn1	0 1/m/s	0 1/m/s	0 1/m/s	0 1/m/s	> 200
Cc1cc(C)nc(SCC(=O)[C@H](CC(=O)O)NC(=O)[C@@H](NC(=O)COc2cccc3ccccc23)C(C)C)n1	120 1/m/s	7130 1/m/s	656 1/m/s	950 1/m/s	> 200
Cc1cc(C)nc(OCC(=O)[C@H](CC(=O)O)NC(=O)[C@@H](NC(=O)COc2cccc3ccccc23)C(C)C)n1	0 1/m/s	283 1/m/s	0 1/m/s	10 1/m/s	–
CC(C)[C@H](NC(=O)COc1cccc2ccccc12)C(=O)N[C@@H](CC(=O)O)C(=O)COc1nccc(C(F)(F)F)n1	0 1/m/s	0 1/m/s	0 1/m/s	0 1/m/s	> 200
CC(C)[C@H](NC(=O)COc1cccc2ccccc12)C(=O)N[C@@H](CC(=O)O)C(=O)CSc1ccccn1	0 1/m/s	348 1/m/s	0 1/m/s	0 1/m/s	–
CC(C)[C@H](NC(=O)COc1cccc2ccccc12)C(=O)N[C@@H](CC(=O)O)C(=O)COn1nnc2ccccc21	14500 1/m/s	121000 1/m/s	8530 1/m/s	28300 1/m/s	> 200
CC(C)[C@H](NC(=O)COc1cccc2ccccc12)C(=O)N[C@@H](CC(=O)O)C(=O)COc1ccc2ccccc2n1	9 1/m/s	979 1/m/s	0 1/m/s	67 1/m/s	> 200
